Earlier results, collected in patent US5750504A, “Antimicrobial proteins” (Zeneca Agrochemicals, priority 1996, dated 1998).
Where no end group is shown, it is not given here.

How the values were obtained:
fungi = details: Rs-AFP-type proteins of WO93/05153; cited from earlier work
[1] = test system: hyphae of Fusarium culmorum; details: Terras FRG et al, 1992; cited from earlier work

| Substance | hyperbranching of fungi (fungi) | hyper-branching of hyphae of Fusarium culmorum [1] |
| --- | --- | --- |
| Cb-AMP1: antimicrobial protein capable of isolation from Cnicus benedictus, SEQ ID NO 6 (ELCEKASKTWSGNCGNTKHCDDQCKSWEGAAHGACHVRNGKHMCFCYFNC; ends and bridges not checked; cysteine pairing not given here) | do not | – |
| Dm-AMP1: antimicrobial protein capable of isolation from Dahlia merckii, SEQ ID NO 5 (ELCEKASKTWSGNCGNTGHCDNQCKSWEGAAHGACHVRNGKHMCFCYFNC; ends and bridges not checked; cysteine pairing not given here) | do not | – |
| Rs-AFP1: antifungal protein from Raphanus sativus seeds, SEQ ID NO 3 (ZKLCERPSGTWSGVCGNNNACKNQCINLEKARHGSCNYVFPAHKCICYFPC) | cause hyperbranching | A similar effect |
| Rs-AFP2: antifungal protein from Raphanus sativus seeds, SEQ ID NO 4 (ZKLCQRPSGTWSGVCGNNNACKNQCIRLEKARHGSCNYVFPAHKCICYFPC) | cause hyperbranching | A similar effect |
